Results reported in patent US8012975B2, “Antitumoral analogs of ET-743” (Pharma Mar, S.A., priority 2000, dated 2011).

How the values were obtained:
P-388 = assay: Cytotoxic activity IC50, P-388; details: Mus musculus, P388, read-out: CYTOTOXIC ACTIVITIY IC50 (μM) P-388
A-549 = assay: Cytotoxic activity IC50, A-549; details: Homo sapiens, A549, read-out: CYTOTOXIC ACTIVITIY IC50 (μM) A-549, A-549
HT-29 = assay: Cytotoxic activity IC50, HT-29; details: Homo sapiens, HT-29, read-out: CYTOTOXIC ACTIVITIY IC50 (μM) HT-29, HT-29
MEL-28 = assay: Cytotoxic activity IC50, MEL-28; details: Homo sapiens, SK-MEL-28, read-out: CYTOTOXIC ACTIVITIY IC50 (μM) MEL-28, MEL-28
DU-145 = assay: Cytotoxic activity IC50, DU-145; details: Homo sapiens, DU-145, read-out: CYTOTOXIC ACTIVITIY IC50 (μM) DU-145, DU-145

SMILES | IC50 (P-388) | IC50 (A-549) | IC50 (HT-29) | IC50 (MEL-28) | IC50 (DU-145)
COc1c(C)cc2c(c1O)[C@@H]1C3Cc4c(OC(C)=O)c(C)c5c(c4[C@H](CNC(=O)[C@H](C)NC(=O)Cc4ccccc4)N3[C@@H](O)[C@H](C2)N1C)OCO5 (stereo partly shown) [drawing 137] | 0.0007 µM | 0.0007 µM | 0.0007 µM | 0.0007 µM | 0.0007 µM
COc1c(C)cc2c(c1O)[C@@H]1C3Cc4c(OC(=O)C(F)(F)F)c(C)c5c(c4[C@H](CNC(=O)CCc4ccccc4)N3[C@@H](C#N)[C@H](C2)N1C)OCO5 (stereo partly shown) | 0.01 µM | 0.01 µM | 0.01 µM | 0.01 µM | 0.01 µM
COc1c(C)cc2c(c1O)[C@@H]1C3Cc4c(O)c(C)c5c(c4[C@H](CNC(=O)/C=C/c4ccccc4)N3[C@@H](C#N)[C@H](C2)N1C)OCO5 (stereo partly shown) | 0.001 µM | 0.001 µM | 0.001 µM | 0.001 µM | 0.001 µM
COc1c(C)cc2c(c1O)[C@@H]1C3Cc4c(OC(C)=O)c(C)c5c(c4[C@H](CNC(=O)[C@@H](C)NC(=O)CC(C)C)N3[C@@H](O)[C@H](C2)N1C)OCO5 (stereo partly shown) | 0.001 µM | 0.001 µM | 0.001 µM | 0.001 µM | 0.001 µM
COCOc1c(OC)c(C)cc2c1[C@@H]1C3Cc4c(OC(=O)CCl)c(C)c5c(c4[C@H](CNC(=O)CCc4ccccc4)N3[C@@H](C#N)[C@H](C2)N1C)OCO5 (stereo partly shown) | 0.1 µM | 0.1 µM | 0.1 µM | 0.1 µM | 0.1 µM
COc1c(C)cc2c(c1OC(C)=O)[C@@H]1C3Cc4c(OC(=O)CCl)c(C)c5c(c4[C@H](CNC(=O)CCc4ccccc4)N3[C@@H](C#N)[C@H](C2)N1C)OCO5 (stereo partly shown) | 0.01 µM | 0.01 µM | 0.01 µM | 0.01 µM | 0.01 µM
C=CCOc1c(C)c2c(c3c1CC1[C@H]4c5c(cc(C)c(OC)c5OCOC)C[C@@H]([C@H](C#N)N1[C@H]3COC(=O)/C=C/c1ccccc1)N4C)OCO2 (stereo partly shown) | 0.1 µM | 0.1 µM | 0.1 µM | 0.1 µM | 0.1 µM
COCOc1c(OC)c(C)cc2c1[C@@H]1C3Cc4c(OC(=O)CCCl)c(C)c5c(c4[C@H](CNC(=O)CCc4ccccc4)N3[C@@H](C#N)[C@H](C2)N1C)OCO5 (stereo partly shown) | 0.05 µM | 0.05 µM | 0.05 µM | 0.05 µM | 0.05 µM
COCOc1c(OC)c(C)cc2c1[C@@H]1C3Cc4c(O)c(C)c5c(c4[C@H](CNC(=O)CCc4ccccc4)N3[C@@H](C#N)[C@H](C2)N1C)OCO5 (stereo partly shown) | 0.1 µM | 0.1 µM | 0.1 µM | 0.1 µM | 0.1 µM
C=CCOC(=O)Oc1c(C)c2c(c3c1CC1[C@H]4c5c(cc(C)c(OC)c5OCOC)C[C@@H]([C@H](C#N)N1[C@H]3CNC(=O)OCC(Cl)(Cl)Cl)N4C)OCO2 (stereo partly shown) | 0.1 µM | 0.1 µM | 0.1 µM | 0.1 µM | 0.1 µM
C=CCOc1c(C)c2c(c3c1CC1[C@H]4c5c(cc(C)c(OC)c5OCOC)C[C@@H]([C@H](C#N)N1[C@H]3COC(=O)CCC)N4C)OCO2 (stereo partly shown) | > 1 µM | > 1 µM | > 1 µM | > 1 µM | > 1 µM
CCC(=O)N[C@@H](C)C(=O)NC[C@H]1c2c(c(OC(C)=O)c(C)c3c2OCO3)CC2[C@H]3c4c(cc(C)c(OC)c4O)C[C@@H]([C@H](C#N)N21)N3C (stereo partly shown) | 0.0007 µM | 0.0007 µM | 0.0007 µM | 0.0007 µM | 0.0007 µM
COc1c(C)cc2c(c1O)[C@@H]1C3Cc4c(OC(C)=O)c(C)c5c(c4[C@H](CNC(=O)CC(C)C)N3[C@@H](O)[C@H](C2)N1C)OCO5 (stereo partly shown) | 0.0008 µM | 0.001 µM | 0.0008 µM | 0.0008 µM | 0.001 µM
C=CCOC(=O)Oc1c(C)c2c(c3c1CC1[C@H]4c5c(cc(C)c(OC)c5O)C[C@@H]([C@H](C#N)N1[C@H]3CNC(=O)[C@H](C)N)N4C)OCO2 (stereo partly shown) | 0.001 µM | 0.001 µM | 0.001 µM | 0.001 µM | 0.001 µM
